From patent US9994578B2, “Benzodiazepine derivative and use thereof” (JIANGSU NHWALUOKANG PHARMCEUTICAL RESEARCH AND DEVELOPMENT …, priority 2014, dated 2018)
Converted amounts (≈) assume the structure as drawn. Marks after values point to notes of the source that are not given here.

How the values were obtained:
SD rats = test: Anesthetic ED50, LD50 and TI index of rats (sequential method); format: in vivo; details: for ED50: Rattus norvegicus, male SD rats, caudal vein injection in 10 seconds, disappearance of righting reflex; for TI index: rats, LD50/ED50
Procedure: (§1) Anesthetic ED50 (median effective dose) value and LD50 (half lethal dose) value of rats are determined by sequential method. Healthy male SD rats (SPF, Qinglongshan animal breeding center of Nanjing), n-10˜20, were administrated via caudal vein injection and injection was completed in 10 seconds at a constant speed. The rough dosage that cause anesthesia (or death) of animal was found by preliminary test before experiment and used as middle dosage for the formal experiment. The spacing of each group was set as 0.8, and 2-3 dose-groups were set up and down, respectively. During the formal experiment, administration began from the group of middle dosage. When the animal was anaesthetized (or dead), administration was reduced by a dose unit; if the animal was not anaesthetized (or death), administration was increased by a dose unit until 3-4 reversal were found. The disappearance of righting reflex or death was used as judgment index, respectively. The ot425 software was used to calculate LD50 and ED50. Treatment index (TI index) was calculated by LD50 and ED50 value=LD50/ED50.

[1] = as above; format: in vivo; details: rat, in vivo, intravenous; male SD rats, caudal vein injection in 10 seconds, death
Procedure: as §1

[2] = Solubility in normal saline; format: physicochemical; details: saline or isotonic
Procedure: The structures of the compounds C1-C5 and their solubilities in normal saline are as follows:
Furthermore, other derivatives were also prepared. The structures and solubilities in normal saline are as follows: […]

[3] = Oil/water partition coefficient (n-octanol/water); format: physicochemical; details: 1 mg/ml aqueous solution, room temperature
Procedure: Remirnazolam and compound C2 were formulated into aqueous solution of 1 mg/ml respectively, 10 ml of prepared solution were measured and n-octanol with equal volume was added.

[4] = test system: New Zealand white rabbits; test: Anesthetic induction time and waking up time of rabbits via intravenous bolus; format: in vivo; details: for Number of anesthetic animals: 1.0 mg/kg (2*ED50) ear vein injection in 30 seconds, 8 per group; for Duration / Induction time: 1.0 mg/kg (2*ED50) i.v. bolus
Procedure: New Zealand white rabbits (SPF, Peizhou rabbit breeding center), half male and half female, were divided into groups with 8 animals in each group. The dosage of administration was 2*ED50 (ED50 value was detected in Example 14), and was administrated via ear vein injection at a constant speed in 30 seconds. The time (latent period) for the disappearance of right reflex and recovery time (duration period) of rabbits were recorded.

Kunming mice = test: Anesthetic efficacy on mice (disappearance of righting reflex); format: in vivo; details: for Number of anesthetized animals / Behavior of animals: 9 mg/kg caudal vein injection, 0.9 mg/ml; for Number of anesthetized animals: 6 per group, disappearance of righting reflex
Procedure: Kunming mice (SPF, Chongqing Medical University Animal Center) were randomly grouped with 6 animals in each group. The dosage as 9 mg/kg was administered via caudal vein injection for 3-5 seconds. The performances during animal experiments were recorded with the standard of disappearance of righting reflex.

Macaca fascicularis = test: Anesthetic pharmacodynamic experiment on Macaca fascicularis; format: in vivo; details: for Number of anesthetic animal/number of animal: disappearance of eyelid response
Procedure: Compound C2 showing significant efficacy on other animal, was administrated to Macaca fascicularis for anesthetic pharmacodynamic experiment. The rough anesthetic dosage of compound C2 for Macaca fascicularis was investigated by preliminary test before experiment and different dosages were set for the formal experiment. Intravenous administration was performed in 60±10s. The disappearance of eyelid response of animal was used to judge whether anesthesia occurred on the animal. The behaviors of animals were observed during duration period and the anesthetic effects of compound C2 on Macaca fascicularis were evaluated.

[5] = test system: New Zealand white rabbits; test: Rabbits anesthetic ED50 (sequential method); format: in vivo; details: Oryctolagus cuniculus, ear vein injection in 30 seconds, disappearance of righting reflex
Procedure: Anesthetic ED50 values of rabbits are determined by sequential method. Healthy New Zealand white rabbits (SPF, Peizhou rabbit breeding center) were administrated via ear vein injection at a constant speed in 30 seconds. The rough dosage that cause anesthesia (or death) of animal were found by preliminary test before experiment and used as middle dosage for the formal experiment. The spacing of each group was set as 0.8 and 2-3 dose-groups were set up and down, respectively. The disappearance of righting reflex or death was used as judgment index of efficacy or toxicity, respectively. During the formal experiment, administration began from the group of middle dosage. When the animal was anesthetized (or dead), administration was reduced by a dose unit; if the animal was not anesthetized (or dead), administration was increased by a dose unit, until 3-4 reversal occurred. The disappearance of righting reflex or death was used as judgment index, respectively. The ot425 software was used to calculate ED50.

[6] = test system: New Zealand white rabbits; test: Long-term venous infusion experiment on rabbits; format: in vivo; details: inducing dose 1.5 mg/kg (3*ED50), maintaining dose 22.5 mg/kg/h
Procedure: New Zealand white rabbits (SPF, Peizhou rabbit breeding center), half male and half female, were divided into groups with 10 animals in each group. The dosage of each administration was 3*ED50 (ED50 value was detected in Example 14) as inducing dosage when intravenous injection was performed on rabbits. An appropriate dosage was infused as maintaining dosage for 30 min. […] The effects of long-term infusion of medicine of the two groups on rabbits (breathe, salivation, excrement) were observed and the time from ceasing administration to the recovery of righting reflex of rabbits were recorded.

Kunming rats = test: Anesthetic induction time and waking up time of rats via intravenous bolus; format: in vivo; details: for Number of anesthetic animals: 2*ED50 caudal vein injection in 10 seconds, 10 per group; for Induction time: 2*ED50 i.v. bolus, time to disappearance of righting reflex
Procedure: (§2) Kunming rats (SPF, Qinglongshan animal breeding center of Nanjing), half male and half female, were divided into groups with 10 animals in each group. The dosage of administration was 2*ED50 (ED50 value was detected in Example 12) and caudal vein injection was done at a constant speed in 10 seconds. The time for the disappearance of right reflex (latent period) and recovery time (duration period) of rats were recorded.

rats = test: as above; format: in vivo; details: 2*ED50 i.v. bolus, recovery time
Procedure: as §2

[7] = Rat plasma decomposition in vitro; format: in vitro ADME; details: 37° C.
Procedure: Remimazolam and compound C2 were formulated in normal saline of respectively. 0.1 ml of the solution was measured and added into plasma of rat (living Kunming species, SPF, Animal center of Chongqing Medical University). Mixing was performed sufficiently, and the mixture was placed in constant temperature water bath of 37° C. 2 ml of acetonitrile was added immediately after taking samples at different time-points. Shaking and centrifugation at 1000 rpm/min were conducted to obtain supernatant and HPLC measurement was performed.

ICU patients = details: of 49 ICU patients, sedation; cited from earlier work
[8] = Hepatocyte metabolism experiment of CNS 7056 in vitro with formic acid; format: in vitro ADME; details: formic acid added in liver cell nutrient solution at 0.1% (v/v)
Description: Therefore, after a long-term administration of remimazolam during ICU sedation process by ONO PHARMACEUTICAL CO., LTD, the metabolite methanol is easily oxidized to formic acid. Formic acid easily accumulates in vivo and inhibits hCES1 such that remimazolam is metabolized slowly, which may cause high serum concentration in some patients.

[9] = test system: GABAA receptor benzodiazepines site; test: In vitro affinity with GABAA receptor benzodiazepines site (3H-flunitrazepam displacement, brain membrane); format: binding, SD rat

Structure (SMILES): CCOC(=O)CC[C@@H]1N=C(c2ccccn2)c2cc(Br)ccc2-n2c(C)cnc21 [C2, remimazolam acid ethyl ester p-toluenesulfonate]
- ED50 (SD rats): 3.2 mg/kg
- TI index (SD rats): 9.6
- LD50 [1]: 30.7 mg/kg
- solubility [2]: 15 mg/mL (≈ 33.1 mM)
- logP at 24 h [3]: 3.28
- Number of anesthetic animals [4]: 8/8
- Duration [4]: 13.19 ± 3.52 min
- Induction time [4]: 1.80 ± 0.78 min
- Number of anesthetized animals (Kunming mice): 6/6
- Duration (Macaca fascicularis; 3 mg/kg i.v.): 28.67 ± 5.92 min
- Induction time (Macaca fascicularis; 3 mg/kg i.v.): 2.00 ± 0.63 s
- Number of anesthetic animal/number of animal (Macaca fascicularis; 3 mg/kg i.v.): 3/3
- Duration (Macaca fascicularis; 4 mg/kg i.v.): 31.67 ± 6.86 min
- Induction time (Macaca fascicularis; 4 mg/kg i.v.): 1.74 ± 0.43 s
- Number of anesthetic animal/number of animal (Macaca fascicularis; 4 mg/kg i.v.): 3/3
- Duration (Macaca fascicularis; 5 mg/kg i.v.): 36.21 ± 4.78 min
- Induction time (Macaca fascicularis; 5 mg/kg i.v.): 1.48 ± 0.54 s
- Number of anesthetic animal/number of animal (Macaca fascicularis; 5 mg/kg i.v.): 3/3
- ED50 [5]: 0.512 mg/kg
- Waking up time after intravenous drip for 30 min [6]: 45.20 ± 12.59 min
- Number of anesthetic animals (Kunming rats): 10/10
- Induction time (Kunming rats): 18.8 ± 3.0 s
- Duration (rats): 267.4 ± 105 s
- Rat Plasma decomposition in vitro (%) ([7]; 10 s): 61.4%
- Rat Plasma decomposition in vitro (%) ([7]; 30 s): 99.0%
- Rat Plasma decomposition in vitro (%) ([7]; 1 min): 100%

Structure (SMILES): CCOC(=O)CC[C@@H]1N=C(c2ccccn2)c2cc(Br)ccc2-n2c(C)cnc21.O=S(=O)(O)c1ccccc1 [C3, remimazolam acid ethyl ester benzenesulfonate]
- solubility [2]: 15 mg/mL

Structure (SMILES): CCOC(=O)CC[C@@H]1N=C(c2ccccn2)c2cc(Br)ccc2-n2c(C)cnc21.CS(=O)(=O)O [C4, remimazolam acid ethyl ester methanesulfonate]
- solubility [2]: 16 mg/mL

Structure (SMILES): CCOC(=O)CC[C@@H]1N=C(c2ccccn2)c2cc(Br)ccc2-n2c(C)cnc21.CCS(=O)(=O)O [C5, remimazolam acid ethyl ester ethanesulfonate]
- solubility [2]: 16 mg/mL

Structure (SMILES): Cc1ccc(S(=O)(=O)O)cc1.Cc1cnc2n1-c1ccc(Br)cc1C(c1ccccn1)=N[C@H]2CCC(=O)OC(C)C [C6, remimazolam acid isopropyl ester p-toluenesulfonate]
- solubility [2]: 8 mg/mL
- Number of anesthetized animals (Kunming mice): 6/6
- anesthetic effect on the mice (Kunming mice; 9 mg/kg i.v.): has anesthetic effect on the mice
- toxicity in mice (Kunming mice; 9 mg/kg i.v.): shows some toxicity

Structure (SMILES): CCCOC(=O)CC[C@@H]1N=C(c2ccccn2)c2cc(Br)ccc2-n2c(C)cnc21.Cc1ccc(S(=O)(=O)O)cc1 [C7, remimazolam acid n-propyl ester p-toluenesulfonate]
- solubility [2]: 8 mg/mL
- Number of anesthetized animals (Kunming mice): 0/6

Structure (SMILES): Cc1ccc(S(=O)(=O)O)cc1.Cc1cnc2n1-c1ccc(Br)cc1C(c1ccccn1)=N[C@H]2CCC(=O)OCCC(C)C [C8, remimazolam acid isopentyl ester p-toluenesulfonate]
- solubility [2]: 6 mg/mL
- Behavior of animals (Kunming mice): Non-effect
- Number of anesthetized animals (Kunming mice): 0/6

Structure (SMILES): Cc1ccc(S(=O)(=O)O)cc1.Cc1cnc2n1-c1ccc(Br)cc1C(c1ccccn1)=N[C@H]2CCC(=O)OC1CCCCC1 [C9, remimazolam acid cyclohexyl ester p-toluenesulfonate]
- solubility [2]: 5 mg/mL
- Behavior of animals (Kunming mice): Non-effect
- Number of anesthetized animals (Kunming mice): 0/6

Structure (SMILES): COC(=O)CC[C@@H]1N=C(c2ccccn2)c2cc(Br)ccc2-n2c(C)cnc21 [remimazolam, reference compound]
- ED50 (SD rats): 5 mg/kg
- TI index (SD rats): 12.3
- LD50 [1]: 61.4 mg/kg
- logP at 24 h [3]: 2.62
- Number of anesthetic animals [4]: 8/8
- Duration [4]: 10.25 ± 2.72 min
- Induction time [4]: 4.30 ± 2.38 min
- patients with higher serum concentration of remimazolam (ICU patients): Five
- patients with prolonged waking up time (ICU patients): five
- Number of anesthetized animals (Kunming mice): 6/6
- Duration (Macaca fascicularis; 3 mg/kg i.v.): 23.33 ± 6.71 min
- Induction time (Macaca fascicularis; 3 mg/kg i.v.): 2.17 ± 0.41 s
- Number of anesthetic animal/number of animal (Macaca fascicularis; 3 mg/kg i.v.): 3/3
- metabolism of CNS 7056 in hepatocytes [8]: totally inhibited
- ED50 [5]: 0.512 mg/kg
- Waking up time after intravenous drip for 30 min [6]: 33.91 ± 10.28 min
- Number of anesthetic animals (Kunming rats): 10/10
- Induction time (Kunming rats): 52.1 ± 4.7 s
- Duration (rats): 242.2 ± 68 s
- Inhibitory rate % ([9]; 1.0 × 10^−5M test compound, 1 nM 3H-flunitrazepam): 99.7* %
- Inhibitory rate % ([9]; 1.0 × 10^−6M): 85.5%
- Inhibitory rate % ([9]; 1.0 × 10^−7M): 47.0%
- Inhibitory rate % ([9]; 1.0 × 10^−8M): 15.4%
- Inhibitory rate % ([9]; 1.0 × 10^−9M): 6.8%
- Inhibitory rate % ([9]; 1.0 × 10^−10M): 23.0%
- IC50 ([9]; calculated by logit method): 15.8 nM
- Rat Plasma decomposition in vitro (%) ([7]; 10 s): 53.7%
- Rat Plasma decomposition in vitro (%) ([7]; 30 s): 96.7%
- Rat Plasma decomposition in vitro (%) ([7]; 1 min): 100%
